Test results reported in patent publication US20070021360A1, “Compositions, formulations and kit with anti-sense oligonucleotide and anti-inflammatory steroid and/or obiquinone for treatment of respiratory and lung disesase” (priority 2001, published 2007).

Legend:
[1] = target: T1, B2 bradykinin receptor (Oryctolagus cuniculus, UniProt Q28642); experiment: Bradykinin B2 receptor binding ([3H]NPC 17731) in airway smooth muscle membranes of treated rabbits; set-up: species or system rabbit; conditions: for B2 receptor Bmax: [3H]NPC 17731
T1 construct: Tissue from airway smooth muscle was dissected to primary, secondary and tertiary bronchi from rabbits; from tissue; host or cells: rabbit airway smooth muscle membranes
T1 sequence (Q28642 1-367): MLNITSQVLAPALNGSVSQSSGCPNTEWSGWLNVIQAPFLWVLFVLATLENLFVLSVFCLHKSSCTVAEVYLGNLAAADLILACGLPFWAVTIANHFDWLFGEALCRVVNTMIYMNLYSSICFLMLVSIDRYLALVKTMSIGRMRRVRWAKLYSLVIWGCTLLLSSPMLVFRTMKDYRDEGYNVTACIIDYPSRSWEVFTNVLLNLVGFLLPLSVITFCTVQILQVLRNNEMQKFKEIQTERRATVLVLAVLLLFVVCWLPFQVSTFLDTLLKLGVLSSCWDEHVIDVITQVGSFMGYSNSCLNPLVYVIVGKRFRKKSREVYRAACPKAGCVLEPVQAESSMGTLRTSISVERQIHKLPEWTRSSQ
Protocol: (§1) A membrane fraction was prepared according to the method of Ali et al. (Ali, S., et al., Am. J. Resp. Crit Care Med. 149: 908 (1994), the relevant section relating to the preparation of the membrane fraction is incorporated in its entirety hereby by reference). The protein content was determined by the method of Bradford and plasma membranes were incubated with 0.2 U/ml adenosine deaminase for 30 minutes at 37 EC to remove endogenous adenosine. See, Bradford, M. M. Anal. Biochem. 72, 240-254 (1976), the relevant portion of which is hereby incorporated in its entirety by reference. The binding of [^3H]DPCPX, [^3H]NPC17731, or [^3H]CGS-21680 was measured as described by Jarvis et al. See, Jarvis, M. F., et al., Pharmacol. Exptl. Ther. 251, 888-893 (1989), the relevant portion of which is fully incorporated herein by reference.

[2] = target: T2, adenosine A1 receptor (Oryctolagus cuniculus, UniProt P34970); experiment: Adenosine A1 receptor binding ([3H]DPCPX) in airway smooth muscle membranes of treated rabbits; conditions: for A1 receptor Bmax: [3H]DPCPX
T2 construct: Airway smooth muscle tissue was dissected from each rabbit and a membrane fraction prepared; from tissue; host or cells: rabbit airway smooth muscle, crude plasma membranes
T2 sequence (P34970 1-328): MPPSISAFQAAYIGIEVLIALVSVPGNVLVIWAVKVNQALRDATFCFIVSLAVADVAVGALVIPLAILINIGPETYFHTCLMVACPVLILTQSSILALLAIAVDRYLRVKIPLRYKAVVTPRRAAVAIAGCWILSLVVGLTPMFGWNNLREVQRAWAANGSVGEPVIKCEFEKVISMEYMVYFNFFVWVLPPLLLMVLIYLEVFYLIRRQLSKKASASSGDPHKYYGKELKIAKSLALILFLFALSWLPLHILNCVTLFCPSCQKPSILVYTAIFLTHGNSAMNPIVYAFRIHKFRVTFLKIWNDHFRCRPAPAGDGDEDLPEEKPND
Source text: At the conclusion of the cross-over experiment of Example 3 above, airway smooth muscle from all rabbits was quantitatively analyzed for adenosine A1 receptor number. As a control for the specificity of the anti-sense oligonucleotide, adenosine A2 receptors, which should not have been affected, were also quantified. Airway smooth muscle tissue was dissected from each rabbit and a membrane fraction prepared according to the method of Kleinstein et al. (Kleinstein, J. and Glossrnann, H., Naunyn-Schrniedeberg's Arch Pharmacol. 305: 191-200 (1978)), the relevant portion of which is hereby incorporated in its entirety by reference, with slight modifications. Crude plasma membrane preparations were stored at −70 EC until the time of assay. Protein content was determined by the method of Bradford (M. Bradford, Anal. Biochem. 72, 240-254 (1976), the relevant portion of which is hereby incorporated in its entirety by reference). Frozen plasma membranes were thawed at room temperature and were incubated with 0.2 U/ml adenosine deaminase for 30 minutes at 37 EC to remove endogenous adenosine. The binding of [^3H] DPCPX (A1 receptor-specific) or [^3H] CGS-21680 ([…]) was measured as previously described by Ali et al. (Ali, S. et al., J. Pharmacol. Exp. Ther. 268, Ara. J. Physiol 266, L271-277 (1994), the relevant portion of which is hereby incorporated in its entirety by reference). […] There was no change in adenosine A2 receptor number, as assayed by specific binding of the A2 receptor-specific agonist 2-[p-(2-carboxyethyl)-phenethylamino]-5′-(N-ethylcarboxamido) adenosine (CGS-21680). This is illustrated in Table 6 below.
as §1

[3] = rabbits treated with 2 mg oligo
[4] = rabbits treated with 20 mg oligo

**Q.** What does the source list for “5′-GTAGCAGGCGGGGATGGGGGC-3′ [HAdA1MM1, reference compound]”?
**A.** Kd ([1]; Kd of [3H]NPC 17731 in membranes of rabbits treated with 2 mg oligo): 0.38 ± 0.028 nM; Kd ([1]; Kd of [3H]NPC 17731 in membranes of rabbits treated with 20 mg oligo): 0.35 ± 0.024 nM; B2 receptor Bmax [1, 3]: 14.6 ± 1.02 fmol; B2 receptor Bmax [1, 4]: 14.0 ± 1.0 fmol; Kd ([2]; Kd of [3H]DPCPX in membranes of rabbits treated with 2 mg oligo): 0.37 ± 0.033 nM; Kd ([2]; Kd of [3H]DPCPX in membranes of rabbits treated with 20 mg oligo): 0.34 ± 0.027 nM; A1 receptor Bmax [2, 3]: 51.8 ± 3.88 fmol; A1 receptor Bmax [2, 4]: 52.0 ± 3.64 fmol; A1-Specific Binding ([2]; airway smooth muscle membranes after cross-over experiment, mean (n = 8) ± SEM): 1105 ± 48
